Like-named read-outs stand apart in the source and are kept apart here.
System: recombinant NL4-3 virus (Renilla luciferase) in MT-2 cells
Experiment: HIV cell culture assay (antiviral activity, luciferase readout in infected MT-2 cells)
Assay type: cell-based
Details: Renilla
Summary of the method: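 EC50 derived via median-effect equation from luciferase activity in MT-2 cells after 4–5 day infection, compound serially diluted. Virus: recombinant NL4-3 with Renilla luciferase replacing part of nef, made in 293T cells.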

[1] = NL43, read-out: Activity, antiviral activity class, recombinant NL4-3 Renilla luciferase virus in MT-2 cells
[2] = NL43, recombinant NL4-3 Renilla luciferase virus in MT-2 cells

Compound: CCN(C(=O)[C@H](Cc1ccccc1)NC(=O)NS(=O)(=O)c1ccccc1C)c1ccc2ncccc2c1 [Example CA-80, (S)—N-ethyl-3-phenyl-N-(quinolin-6-yl)-2-(3-(o-tolylsulfonyl)ureido)propanamide]
- EC50 [1]: < 0.1 µM
- EC50 [2]: 0.03 µM

Compound: CCN(C(=O)[C@H](Cc1ccccc1)NC(=O)NS(=O)(=O)c1ccccc1C)c1ccc2c(c1)CCCO2 [Example CA-81, (S)—N-(chroman-6-yl)-N-ethyl-3-phenyl-2-(3-(o-tolylsulfonyl)ureido)propanamide]
- EC50 [1]: < 0.1 µM
- EC50 [2]: 0.04 µM

Compound: Cc1ccc(N(C)C(=O)[C@H](Cc2ccccc2)NC(=O)NS(=O)(=O)c2ccccc2C)cc1 [Example CA-82, (S)—N-methyl-3-phenyl-N-(p-tolyl)-2-(3-(o-tolylsulfonyl)ureido)propanamide]
- EC50 [1]: 0.1 to 1 µM

Compound: CCN(C(=O)[C@H](Cc1ccccc1)NC(=O)NS(=O)(=O)c1ccccc1C)c1ccc2nc(C)ccc2c1 [Example CA-83, (S)—N-ethyl-N-(2-methylquinolin-6-yl)-3-phenyl-2-(3-(o-tolylsulfonyl)ureido)propanamide]
- EC50 [1]: < 0.1 µM

Compound: CCOc1ccc(N(C)C(=O)[C@H](Cc2ccccc2)NC(=O)NS(=O)(=O)c2ccccc2C)cc1 [Example CA-84, (S)—N-(4-ethoxyphenyl)-N-methyl-3-phenyl-2-(3-(o-tolylsulfonyl)ureido)propanamide]
- EC50 [1]: < 0.1 µM

Compound: CC(=O)Nc1ccc(N(C)C(=O)[C@H](Cc2ccccc2)NC(=O)NS(=O)(=O)c2ccccc2C)cc1O [Example CA-85, (S)—N-(4-acetamido-3-hydroxyphenyl)-N-methyl-3-phenyl-2-(3-(o-tolylsulfonyl)ureido)propanamide]
- EC50 [1]: 1 to 10 µM

Compound: Cc1nc2ccc(N(C)C(=O)[C@H](Cc3ccccc3)NC(=O)NS(=O)(=O)c3ccccc3C)cc2o1 [Example CA-86, (S)—N-methyl-N-(2-methylbenzo[d]oxazol-6-yl)-3-phenyl-2-(3-(o-tolylsulfonyl)ureido)propanamide]
- EC50 [1]: < 0.1 µM

Compound: Cc1nc2cc(N(C)C(=O)[C@H](Cc3ccccc3)NC(=O)NS(=O)(=O)c3ccccc3C)ccc2s1 [Example CA-87, (S)—N-methyl-N-(2-methylbenzo[d]thiazol-5-yl)-3-phenyl-2-(3-(o-tolylsulfonyl)ureido)propanamide]
- EC50 [1]: 0.1 to 1 µM

Compound: Cc1ccccc1S(=O)(=O)NC(=O)N[C@@H](Cc1ccccc1)C(=O)N(C)c1ccc2scnc2c1 [Example CA-88, (S)—N-(benzo[d]thiazol-5-yl)-N-methyl-3-phenyl-2-(3-(o-tolylsulfonyl)ureido)propanamide]
- EC50 [1]: < 0.1 µM
- EC50 [2]: 0.06 µM

Compound: CCN(C(=O)[C@H](Cc1ccccc1)NC(=O)NS(=O)(=O)c1ccccc1C)c1ccc(O)c(NC=O)c1 [Example CA-89, (S)—N-ethyl-N-(3-formamido-4-hydroxyphenyl)-3-phenyl-2-(3-(o-tolylsulfonyl)ureido)propanamide]
- EC50 [1]: 0.1 to 1 µM
- EC50 [2]: 0.6 µM

Compound: Cc1ccccc1S(=O)(=O)NC(=O)N[C@@H](Cc1ccccc1)C(=O)N(C)c1ccc(O)c(NC=O)c1 [Example CA-90, (S)—N-(3-formamido-4-hydroxyphenyl)-N-methyl-3-phenyl-2-(3-(o-tolylsulfonyl)ureido)propanamide]
- EC50 [1]: 1 to 10 µM

Compound: Cc1ccccc1S(=O)(=O)NC(=O)N[C@@H](Cc1ccccc1)C(=O)N(C)c1cccc(C#N)c1 [Example CA-91, (S)—N-(3-cyanophenyl)-N-methyl-3-phenyl-2-(3-(o-tolylsulfonyl)ureido)propanamide]
- EC50 [1]: 0.1 to 1 µM

Compound: Cc1ccccc1S(=O)(=O)NC(=O)N[C@@H](Cc1ccccc1)C(=O)N(C)c1ccc(NC(=O)N(C)C)cc1 [Example CA-92, (S)—N-(4-(3,3-dimethylureido)phenyl)-N-methyl-3-phenyl-2-(3-(o-tolylsulfonyl)ureido)propanamide]
- EC50 [1]: 1 to 10 µM

Compound: COC(=O)Nc1ccc(N(C)C(=O)[C@H](Cc2ccccc2)NC(=O)NS(=O)(=O)c2ccccc2C)cc1 [Example CA-93, (S)-methyl (4-(N-methyl-3-phenyl-2-(3-(o-tolylsulfonyl)ureido)propanamido)phenyl)carbamate]
- EC50 [1]: < 0.1 µM

Compound: Cc1ccccc1S(=O)(=O)NC(=O)N[C@@H](Cc1ccccc1)C(=O)N(C)c1cccc(C(N)=O)c1 [Example CA-94, (S)-3-(N-methyl-3-phenyl-2-(3-(o-tolylsulfonyl)ureido)propanamido)benzamide]
- EC50 [1]: 1 to 10 µM
- EC50 [2]: 3.26 µM

Compound: Cc1ccccc1S(=O)(=O)NC(=O)N[C@@H](Cc1ccccc1)C(=O)N(C)c1ccc2ncsc2c1 [Example CA-95, (S)—N-(benzo[d]thiazol-6-yl)-N-methyl-3-phenyl-2-(3-(o-tolylsulfonyl)ureido)propanamide]
- EC50 [1]: < 0.1 µM

Compound: Cc1ccccc1S(=O)(=O)NC(=O)N[C@@H](Cc1ccccc1)C(=O)N(C)c1ccc2ncncc2c1 [Example CA-96, (S)—N-methyl-3-phenyl-N-(quinazolin-6-yl)-2-(3-(o-tolylsulfonyl)ureido)propanamide]
- EC50 [1]: 0.1 to 1 µM

Compound: Cc1ccccc1S(=O)(=O)NC(=O)N[C@@H](Cc1ccccc1)C(=O)N(C)c1ccc(C#N)cc1 [Example CA-97, (S)—N-(4-cyanophenyl)-N-methyl-3-phenyl-2-(3-(o-tolylsulfonyl)ureido)propanamide]
- EC50 [1]: 0.1 to 1 µM

Compound: Cc1ccccc1S(=O)(=O)NC(=O)N[C@@H](Cc1ccccc1)C(=O)N(C)c1ccc2cccnc2c1 [Example CA-98, (S)—N-methyl-3-phenyl-N-(quinolin-7-yl)-2-(3-(o-tolylsulfonyl)ureido)propanamide]
- EC50 [1]: 0.1 to 1 µM
- EC50 [2]: 0.12 µM

Compound: Cc1ccccc1S(=O)(=O)NC(=O)N[C@@H](Cc1ccccc1)C(=O)N(C)c1ccc2cc[nH]c(=O)c2c1 [Example CA-99, (S)—N-methyl-N-(1-oxo-1,2-dihydroisoquinolin-7-yl)-3-phenyl-2-(3-(o-tolylsulfonyl)ureido)propanamide]
- EC50 [1]: 1 to 10 µM

Compound: Cc1ccccc1S(=O)(=O)NC(=O)N[C@@H](Cc1ccccc1)C(=O)N(C)c1ccc(F)c(C(N)=O)c1 [Example CA-100, (S)-2-fluoro-5-(N-methyl-3-phenyl-2-(3-(o-tolylsulfonyl)ureido)propanamido)benzamide]
- EC50 [1]: 1 to 10 µM

Compound: Cc1ccccc1S(=O)(=O)NC(=O)N[C@@H](Cc1ccccc1)C(=O)N(C)c1cccc2[nH]cnc12 [Example CA-101, (S)—N-(1H-benzo[d]imidazol-4-yl)-N-methyl-3-phenyl-2-(3-(o-tolylsulfonyl)ureido)propanamide]
- EC50 [1]: 1 to 10 µM

Compound: Cc1ccccc1S(=O)(=O)NC(=O)N[C@@H](Cc1cc(F)cc(F)c1)C(=O)N(C)c1ccc(F)c(C(N)=O)c1 [Example CA-102, (S)-5-(3-(3,5-difluorophenyl)-N-methyl-2-(3-(o-tolylsulfonyl)ureido)propanamido)-2-fluorobenzamide]
- EC50 [1]: 1 to 10 µM
- EC50 [2]: 2.58 µM

Compound: Cc1ccccc1S(=O)(=O)NC(=O)N[C@@H](Cc1cc(F)cc(F)c1)C(=O)N(C)c1ccc2cc[nH]c(=O)c2c1 [Example CA-103, (S)-3-(3,5-difluorophenyl)-N-methyl-N-(1-oxo-1,2-dihydroisoquinolin-7-yl)-2-(3-(o-tolylsulfonyl)ureido)propanamide]
- EC50 [1]: 1 to 10 µM
- EC50 [2]: 1.33 µM

Compound: Cc1ccccc1S(=O)(=O)NC(=O)N[C@@H](Cc1cc(F)cc(F)c1)C(=O)N(C)c1ccc2cccnc2c1 [Example CA-104, (S)-3-(3,5-difluorophenyl)-N-methyl-N-(quinolin-7-yl)-2-(3-(o-tolylsulfonyl)ureido)propanamide]
- EC50 [1]: 0.1 to 1 µM

Compound: Cc1ccccc1S(=O)(=O)NC(=O)N[C@@H](Cc1cc(F)cc(F)c1)C(=O)N(C)c1cc2ccccc2cn1 [Example CA-105, (S)-3-(3,5-difluorophenyl)-N-(isoquinolin-3-yl)-N-methyl-2-(3-(o-tolylsulfonyl)ureido)propanamide]
- EC50 [1]: 0.1 to 1 µM

Compound: CNS(=O)(=O)c1cccc(N(C)C(=O)[C@H](Cc2cc(F)cc(F)c2)NC(=O)NS(=O)(=O)c2ccccc2C)c1 [Example CA-106, (S)-3-(3,5-difluorophenyl)-N-methyl-N-(3-(N-methylsulfamoyl)phenyl)-2-(3-(o-tolylsulfonyl)ureido)propanamide]
- EC50 [1]: 1 to 10 µM

Compound: Cc1ccccc1S(=O)(=O)NC(=O)N[C@@H](Cc1cc(F)cc(F)c1)C(=O)N(C)c1ccccc1F [Example CA-107, (S)-3-(3,5-difluorophenyl)-N-(2-fluorophenyl)-N-methyl-2-(3-(o-tolylsulfonyl)ureido)propanamide]
- EC50 [1]: 1 to 10 µM

Compound: Cc1ccccc1S(=O)(=O)NC(=O)N[C@@H](Cc1cc(F)cc(F)c1)C(=O)N(C)c1ccc(OC(F)(F)F)cc1 [Example CA-108, (S)-3-(3,5-difluorophenyl)-N-methyl-2-(3-(o-tolylsulfonyl)ureido)-N-(4-(trifluoromethoxy)phenyl)propanamide]
- EC50 [1]: 0.1 to 1 µM

Compound: Cc1ccccc1S(=O)(=O)NC(=O)N[C@@H](Cc1cc(F)cc(F)c1)C(=O)N(C)c1cccc2ncccc12 [Example CA-109, (S)-3-(3,5-difluorophenyl)-N-methyl-N-(quinolin-5-yl)-2-(3-(o-tolylsulfonyl)ureido)propanamide]
- EC50 [1]: 0.1 to 1 µM
- EC50 [2]: 0.37 µM

Compound: Cc1ccccc1S(=O)(=O)NC(=O)N[C@@H](Cc1cc(F)cc(F)c1)C(=O)N(C)c1cccc2cnccc12 [Example CA-110, (S)-3-(3,5-difluorophenyl)-N-(isoquinolin-5-yl)-N-methyl-2-(3-(o-tolylsulfonyl)ureido)propanamide]
- EC50 [1]: 0.1 to 1 µM

Compound: Cc1ccccc1S(=O)(=O)NC(=O)N[C@@H](Cc1cc(F)cc(F)c1)C(=O)N(C)c1cccc(Cl)c1 [Example CA-111, (S)—N-(3-chlorophenyl)-3-(3,5-difluorophenyl)-N-methyl-2-(3-(o-tolylsulfonyl)ureido)propanamide]
- EC50 [1]: 1 to 10 µM

Compound: Cc1ccccc1S(=O)(=O)NC(=O)N[C@@H](Cc1cc(F)cc(F)c1)C(=O)N(C)c1ccc(F)cc1F [Example CA-112, (S)—N-(2,4-difluorophenyl)-3-(3,5-difluorophenyl)-N-methyl-2-(3-(o-tolylsulfonyl)ureido)propanamide]
- EC50 [1]: 1 to 10 µM
- EC50 [2]: 1.29 µM

Source: patent US10035760B2, “Inhibitors of human immunodeficiency virus replication” (priority 2013, dated 2018)
